Publication PMC2360532, “Somatostatin receptor expression, tumour response, and quality of life in patients with advanced hepatocellular carcinoma treated with long-acting octreotide” (British Journal of Cancer, 2006)

Tests used:
[1] = clinical; conditions: human, plasma, im, 20 mg
Text: (§1) Blood was also sampled for octreotide pharmacokinetics and assessment of chromogranin A levels before the 4th and 7th doses.
(§2) Samples were taken immediately before the 4th and 7th doses of octreotide (weeks 12 and 24 of treatment). These time points were selected in order to assess trough octreotide plasma concentrations at steady state after three doses and to determine potential octreotide accumulation in this cirrhotic population with more continued dosing. Additional samples were also collected in some cases. […] The lower limit of quantification was 50 pg ml^−1 for a 50 μl plasma sample.

[2] = cited from earlier work
Text: Safety is important for people with comorbidities. There is limited information available about the elimination kinetics of octreotide in cirrhosis. […] Since pharmacokinetics may be altered in patients with cirrhosis, it was considered necessary to determine whether liver impairment predisposes to toxicity and ...

[3] = patients who remained on the study for 6 months or more
Text: as §1, §2

[4] = tested on: patients with advanced HCC; assay: Serious adverse events and tolerability; format: in vivo, human
Method: The planned duration of treatment was 12 months in the absence of disease progression, unacceptable toxicity, or withdrawal at the patient's or doctor's discretion. An extension phase allowed treatment to continue beyond 12 months on an individual basis at the discretion of the principal investigator.
Subjects were seen monthly for clinical review, blood tests, and administration of the study drug. Response was assessed using the RECIST (response evaluation criteria in solid tumours) criteria ([Therasse et al, 2000]). Radiological assessment was undertaken 3-monthly and any partial or complete responses were confirmed 1 month later.

[5] = tested on: HCC; conditions: ref Kouroumalis et al (1998), cited from earlier work
Text: High-affinity somatostatin receptors capable of binding octreotide are present in approximately 40% of HCC, and not in adjacent liver. However, the numbers of high-affinity receptors are lower than reported for neuroendocrine tumours ([Reubi et al, 1999]). Somatostatin is a potent inhibitor of several growth factors and angioneogenesis ([Flori ... || Most patients with advanced HCC have a dismal prognosis ([Leung and Johnson, 2001]). However, a treatment that benefits only a subset of patients may still be clinically worthwhile. The very different outcomes in the randomised trials by Kouroumalis and Yuen probably reflect differences in patient selection ([Kouroumalis et al, 1998]; [Yuen et al, 2002]). The Yuen study had subjects with more advanced disease, a higher proportion with viral hepatitis, and a median survival of only 2 months. Our study population was more similar to the Kouroumalis study population (Table 4) and our median survi ...

[6] = short-acting form, ref Jenkins et al (1998)

Q: With C[C@@H](O)[C@@H]1NC(=O)[C@H](CCCCN)NC(=O)[C@@H](Cc2c[nH]c3ccccc23)NC(=O)[C@H](Cc2ccccc2)NC(=O)[C@@H](NC(=O)[C@H](N)Cc2ccccc2)CSSC[C@@H](C(=O)N[C@H](CO)[C@@H](C)O)NC1=O [octreotide] as the compound, how does the level at 2016 h [1] read?
A: 2.21 ng/mL

Q: What about the level at 4032 h [1] of the same compound?
A: 3.38 ng/mL

Q: And the level at 6480 h [1]?
A: 3.24 ng/mL

Q: And the Plasma concentrations ([2]; 30 mg i.m. dose, six patients with acromegaly (noncirrhotic), ref Stewart et al, 1995)?
A: 1.682 ± 0.174 ng/mL

Q: And the “Clearance in patients with cirrhosis” value [2, 6]?
A: reduced

Q: What about the “Half-life in patients with cirrhosis” value [2, 6] of the same compound?
A: prolonged

Q: And the “Accumulation of octreotide in plasma” value [3]?
A: no evidence of accumulation

Q: And the “Serious adverse events attributed to the drug” value ([4]; 20 mg i.m. every 28 days, advanced HCC)?
A: No serious adverse events were attributed

Q: What about the “Treatment stopped because of adverse effects (cramps), cases” value ([4]; 63 patients) of the same compound?
A: one

Q: And the Median survival ([5]; short-acting octreotide arm vs 4 months in untreated control, HCC)?
A: 13 months

Q: And the 12-month survival ([5]; short-acting octreotide arm vs 13% in untreated control, P=0.002)?
A: 56%
